According to patent US20240190903A1, “COMPOUNDS FOR PROGRAMMABLE PROTEIN DEGRADATION AND METHODS OF USE FOR THE TREATMENT OF DISEASE” (Mayo Foundation for Medical Education and Research, priority 2021, published 2024):

Tests used:
VCaP xenografts = VCaP xenografts in SCID mice; format: in vivo; conditions: 25 mg/kg, 23 days
Description: For IHC, tissues were rehydrated, endogenous peroxidase activity was destroyed, and antigens were retrieval. Antibodies for IHC as following: anti-AR (ab108341, Abcam), anti-ERG (ab92513, Abcam), anti-Ki67 (ab15580), anti-UMPS (NOVUS, #85896), anti-RRM1 (Cell signaling technology, #8637), anti-CBP (Santa Cruz Biotechnology, sc-583), anti-LEF1 (Cell signaling technology, #2230S). For quantification, the staining score was determined by multiplying the percentage of positive cells and the intensity ranged from 1 (weak staining), 2 (median staining), and 3 (strong staining). For Ki67 quantification, cells with positive staining in the nucleus were included to calculate the percentage of Ki67 positive-staining cells.
Six-week SCID male mice were used in the study. Mice were subcutaneously injected with VCaP cells (5×10^6) mixed with Matrigel mixture (1×PBS: Matrigel (BD Biosciences)=1:1). After the xenografts reached a size of approximately 100 mm^3, mice were treated intraperitoneally with vehicle (90% corn oil (Sigma-Aldrich)+10% DMSO), ICG-001 or CBP PROTAC CP2 at 25 mg/kg for 5 days per week. For LEF1/TCF O′PROTAC administration, mice were transplanted with LuCaP23.1 PDX tumors in the approximately same volume. […] Tumor length (L) and width (W) were measured every 3 days, and tumor volumes were calculated by the formula: (L×W^2)/2. […]

[1] = test system: PSGs and canonical β-Catenin target genes CCND1 and c-MYC; experiment: RT-qPCR and western blot of PSGs, CCND1 and c-MYC in VCaP cells; format: cell-based, human
Description: PRI-724 is a pro-drug of C-82, a second-generation specific β—Catenin/CBP antagonist.
The total RNA was extracted from cultured cells or organoids using Trizol reagent (Thermo Fisher Scientific) according to the manufacturer's instructions. Complementary DNA was synthesized using reverse transcriptase (Promega). mRNA expression level was determined by real-time quantitative PCR (qPCR) using SYBR Green Mix (Thermo Fisher Scientific) with the realtime PCR system (Bio-Rad). Relative gene expression was normalized to the expression of house-keeping gene Actin Beta (ACTB).

VCaP cells = experiment: MTS cell growth assay in VCaP cells; format: cell-based, human; conditions: compound added to cells, different doses
Description: VCaP cells were seeded at the density of 5,000 cells per well in 96-well plate overnight. At the indicated time points, optical density (OD) of cells was measured by microtiter reader (Biotek) at 490 nanometer after incubation with MTS (Promega) for 2 hours at 37° C. in a cell incubator. For the treatment with CP-2, ICG-001 or PRI-724, cells were seeded in 96-well plate overnight followed by adding indicated compounds. OD values were measured at the indicated time points.

[2] = physiological pH 7.4; hydrolysis of phthalimide and glutarimide moiety; cited from earlier work
293T and VCaP cell lines = experiment: Fluorescent microscopy of FITC-labelled ERG O′PROTAC transfection/uptake; format: cell-based, human; conditions: 293T cells
Description: FIGS. 2A-2C. ERG O′PROTACs degrade ERG protein in cultured cells. (FIG. 2A) 293T cells were transfected with FITC-labelled ERG O′PROTAC-13 (100 nM and 1,000 nM), and the transfection efficiency was monitored 48 hours post-transfection using a fluorescent microscope. Scale bar: 50 μm. (FIG. 2B) 293T cells were transfected with HA-ERG plasmid and a control or six indicated ERG O′PROTACs (100 nM) and harvested for western blot analysis 48 hours post-transfection. ERK2 was used as a loading control. (FIG. 2C) VCaP cells were transfected with a control or six indicated ERG O′PROTACs (100 nM), and cells were harvested for western blot analysis 48 hours post-transfection. Both endogenous full-length (FL) wild-type and TMPRSS2-ERG (T2-ERG) truncated ERG were detected.
FIGS. 12A-12H. Phthalic acid-based ERG O′PROTAC degrades ERG oncoprotein. […] The P values were determined using the unpaired two-tailed Student's t-test. n.s. represents not significant by comparing the values in ERG O′PROTAC-treated groups to the control OP-treated group. […] The remaining ERG protein (%) was calculated by normalizing the value of each group to that of the group without ERG OP-C-P1 treatment. (FIG. 12H) The concentration of ERG OP-C-P1 degrading 50% of ERG protein (DC50) was calculated with Prism software. […]

With `O=C1[C@H](Cc2ccc(O)cc2)N2C(=O)CCN(C(=O)NCc3ccccc3)[C@H]2CN1Cc1cccc2ccccc12` [ICG-001] the mouse body weight (VCaP xenografts) was “did not result in obvious deleterious effect”, the “expression of PSGs, CCND1 and c-MYC at mRNA and protein levels” value [1] was “decreased expression” and the “VCaP cell growth (MTS)” value (VCaP cells) was “inhibited cell growth”.
For `C[C@H]1[C@H]2N(C(=O)CN(C)N2C(=O)NCc2ccccc2)[C@@H](Cc2ccc(OP(=O)(O)O)cc2)C(=O)N1Cc1cccc2cccnc12` [PRI-724], the “expression of PSGs, CCND1 and c-MYC at mRNA and protein levels” value [1] was “inhibition” and the “VCaP cell growth (MTS)” value (VCaP cells) was “inhibition”.
In the case of `O=C1CCC(N2C(=O)c3ccccc3C2=O)C(=O)N1` (centres unmarked) [thalidomide], the stability [2] is listed as “poor stability”.
For “FITC-ERG OP-C1: Forward 5′-FITC-ACGGACCGGAAATCCGGTT-3′; reverse 5′-P1-AACCGGATTTCCGGTCCGT-3′”, the “uptake efficacy at 100 nM versus 1,000 nM” value (293T and VCaP cell lines) was “no difference in uptake efficacy” and the “cellular uptake with lipofectamine 2000 versus mock transfection” value (293T and VCaP cell lines; 100 or 1,000 nM) was “greatly enhanced the cellular uptake”.
